Source: patent US20230241014A1, “MEK-INHIBITORS FOR THE TREATMENT OR PREVENTION OF CORONAVIRUS INFECTIONS AND/OR COVID-19 CYTOKINE STORM” (priority 2020, published 2023)

Tested on: SARS-CoV-2 SA variant B.1351
Assay: Virus yield reduction assay against SARS-CoV-2 SA variant B.1351
Assay type: cell-based
Settings: MOI 0.1, 1 and 10, 50, 75, 100 μM, 24 h

How did the “virus yield (RT-qPCR)” value (Calu-3) turn out when `O=C(O)c1ccc(F)c(F)c1Nc1ccc(I)cc1Cl` [ATR-002, 2-(2-chloro-4-iodophenylamino)-N-3,4-difluoro benzoic acid] was run?
The value was “reduction of virus yield”.

What about the “virus yield (RT-qPCR)” value (Vero) of the same molecule?
Its value is “reduction of virus yield”.
